Earlier results in patent publication US20170298446A1, “BIOMARKERS OF BRUTON TYROSINE KINASE INHIBITOR RESISTANCE” (OHIO STATE INNOVATION FOUNDATION, priority 2014, published 2017).

Target: BTK (Homo sapiens, UniProt Q06187)
Sequence (Q06187 whole entry): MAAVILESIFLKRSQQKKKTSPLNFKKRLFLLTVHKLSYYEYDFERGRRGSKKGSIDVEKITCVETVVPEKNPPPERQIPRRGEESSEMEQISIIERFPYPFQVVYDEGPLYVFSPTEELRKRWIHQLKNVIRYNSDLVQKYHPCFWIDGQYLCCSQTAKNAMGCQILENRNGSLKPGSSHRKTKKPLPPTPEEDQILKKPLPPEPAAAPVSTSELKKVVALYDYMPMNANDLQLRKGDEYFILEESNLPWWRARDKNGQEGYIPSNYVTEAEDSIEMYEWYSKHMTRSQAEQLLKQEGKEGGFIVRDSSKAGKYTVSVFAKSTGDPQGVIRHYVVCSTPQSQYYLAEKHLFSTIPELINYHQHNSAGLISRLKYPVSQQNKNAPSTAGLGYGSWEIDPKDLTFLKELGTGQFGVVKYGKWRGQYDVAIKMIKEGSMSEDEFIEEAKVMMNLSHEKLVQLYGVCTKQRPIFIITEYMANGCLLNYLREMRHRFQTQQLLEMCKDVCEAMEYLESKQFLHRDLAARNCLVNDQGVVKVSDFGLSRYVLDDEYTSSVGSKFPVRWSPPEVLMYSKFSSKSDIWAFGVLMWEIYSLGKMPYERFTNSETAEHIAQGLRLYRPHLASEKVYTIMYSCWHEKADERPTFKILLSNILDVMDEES

selectivity for BTK: > 10 fold
SMILES: CC(C)(C)c1ccc(C(=O)Nc2cccc(-c3cn4ccnc4c(Nc4ccccc4)n3)c2)cc1 [CGI-560, 4-(tert-butyl)-N-(3-(8-(phenylamino)imidazo[1,2-a]pyrazin-6-yl)phenyl)benzamide]
